Results reported in patent US20170258871A1, “COMBINED USE OF A TRKA INHIBITOR AND AN EPHA2 INHIBITOR FOR USING IN THE TREATMENT OF SOLID CANCERS, AND METHOD FOR THE PROGNOSIS OF SURVIVAL OF A PATIENT WHO HAS A SOLID CANCER” (UNIVERSITE DES SCIENCES ET TECHNOLOGIES DE LILLE, priority 2014, published 2017).

How the values were obtained:
Assay type in all cases: cell-based
PC3 cells = assay: In vitro invasion test (Boyden chamber), PC3
Description: (§1) (0.5 nM) for a period of 20 hours. The untreated cells represent the control and determine a base invasion of 100%.
(§2) FIG. 3: A study of the involvement of EphA2 on the pro-invasive effects of proNGF. The invasion test is carried out on cells MDA-MB-231 (A), DU145 (B) and PC3 (C) transfected with a siRNA against EphA2 (siEphA2), TrkA (siTrkA) or a random siRNA (siCTRL). The transfected siCTRL cells are treated to provide a control and determine a base invasion of 100% (white column). […] The efficacy of the siRNA is measured by the western blot method through the use of specific antibodies against TrkA, EphA2, and actin (load control).
(§3) The Boyden Chambers (Transwell®; BD Biosciences; France) were recovered from a biological matrix (type 1 collagen from rats diluted to 400 μg·mL-1 in EMEM-0.1% FCS medium; Millipore). The cells were then seeded with 100,000 cells/well on PET membranes (polyethylene terephtalate; dia.: 10.5 mm; porosity: 8 μm) of Boyden Chambers and held in an EMEM-0.1% FCS medium. […] (0.5 nM) in the lower part. […] The number of cells was estimated after staining with Hoechst 33 258 (1 mM; 30 min; 20° C.) by counting the nuclei thereof using fluorescence microscopy on a total of 5 five randomly chosen fields (lens 10×; λ-excitation: 345 nm; λ-emission: 478 nm; Eclipse Ti) using the ImageJ software. […]

Akt = assay: Western blot of Akt phosphorylation in MDA-MB-231 cells
Description: (§4) FIG. 8: A study of the role of TrkA and EphA2 in the activation of proteins Akt and Src. Cells MDA-MB-231 were respectively treated with a TrkA inhibitor (K252a), an anti-EphA2 siRNA (siEphA2), an inhibitor of PI3-K (LY294002) and an inhibitor of Src (SKI-1).
(§5) A and D. Cells MDA-MB-231 HA-TrkA were treated with proNGF N.C. […] The phosphorylation of Akt and Src was determined by using phospho-specific antibodies. The equal charge was verified using Akt and Src antibodies.
(§6) C and F. The phosphorylation of Akt and Src was determined in the total lysates coming from cells MDA-MB-231 transfected with siEphA2 and treated for 30 minutes with proNGF N.C. (C) or NGF (F).
(§7) After treatment, the cells were lysed (lysis buffer: 40 mM HEPES pH 7.5; 1 mM EDTA pH 8.0; 120 mM NaCl; 10 mM NaPPi; 50 mM NaF; 1.5 mM Na3VO4; 1% Triton X 100; 0.1% SDS; 1 mM PMSF; 10% glycerol and 1/100 th of protease inhibitor cocktail (Sigma) (20 min; 4° C.)). The lysates were recovered and clarified by centrifugation (12,000 g; 10 min; 4° C.). The supernatant was then stored at −80° C. until use. The protein extracts were diluted to 2 μg·μL−1 in a Laemmli 1× buffer (7 min; 100° C.) then deposited and separated on SDS-PAGE (concentration gel 3.6% acrylamide and separation gel 7.5% to 10% acrylamide (thickness 1 mm); 180 V; 10 min then 200 V constant; until output of the migration front). The proteins separated by SDS-PAGE were transferred according to the semi-dry transfer method (buffer: 48 mM Tris base, 39 mM glycine, 1.64 mM SDS, 20% methanol (v/v); 14 V; 15 min per gel) or liquid (buffer: 25 mM Tris base and 192 mM glycine; 15% methanol (v/v); 100 V; 30 min) on nitrocellulose membranes (0.45 μm; Whatman; Germany) or PVDF (0.45 μm; Immobilon P; Millipore; France). The PVDF membrane was “activated” beforehand (methanol; 10 min; 20° C.). The membranes were then saturated (TBS-T; 5% BSA; 1 h; 20° C.) then incubated (16 h; 4° C.) with the chosen primary antibody. […] The membranes were placed in an image analyser (LAS 4000; Fuji) connected to a computer which allowed image generation (software Image Reader LAS 4000).
(§8) The antibody against EphA2 was sc-924 (Santa Cruz), the antibody against sortilin was BD Bioscience 612101, the antibody against TrkA was sc 14024 (Santa Cruz), the antibody against HA was MMS-101R (Covance), the antibody against Akt was Cell Signaling 4691, the antibody against phospho-Akt (Ser 473) was Cell Signaling 9271, the antibody against Src was Cell Signaling 2109 (WB), the antibody against PhosphoSrc (Tyr416) was Cell Signaling 2105 and the antibody against actin was Sigma A2066.
(§9) Proteins Akt and Src were both involved in the pro-invasive effect of proNGF. In order to identify the role of TrkA and EphA2 in the activation of proteins Akt and Src, cells MDA-MB-231 were treated respectively with a TrkA inhibitor (K252a), an anti-EphA2 siRNA (siEphA2) the sequence of which is presented in table 1, a PI3-K inhibitor (LY294002) (the activation of Akt in effect underlies that of PI3-K) and an inhibitor of Src (SKI-1).

DU145 cells = assay: In vitro invasion test (Boyden chamber), DU145
Description: as §1, §2, §3

Src = assay: Western blot of Src phosphorylation in MDA-MB-231 cells
Description: as §4, §5, §6, §7, §8, §9

CAL33 cells = assay: In vitro invasion test (Boyden chamber), CAL 33; conditions: NGF 16 nM or proNGF N.C. 0.5 nM, untreated cells = 100%
Description: as §1
(§10) The Boyden Chambers (Transwell®; BD Biosciences; France) were recovered from a biological matrix (type 1 collagen from rats diluted to 400 μg·mL-1 in EMEM-0.1% FCS medium; Millipore). The cells were then seeded with 100,000 cells/well on PET membranes (polyethylene terephtalate; dia.: 10.5 mm; porosity: 8 μm) of Boyden Chambers and held in an EMEM-0.1% FCS medium. […] (0.5 nM) in the lower part. After 20 hours of culture, they were washed twice with PBS 1× and fixed (ice cold methanol; 15 min; −20° C.). The non-invasive cells (upper face of the Transwell®) were eliminated by scraping. The number of cells was estimated after staining with Hoechst 33 258 (1 mM; 30 min; 20° C.) by counting the nuclei thereof using fluorescence microscopy on a total of 5 five randomly chosen fields (lens 10×; λ-excitation: 345 nm; λ-emission: 478 nm; Eclipse Ti) using the ImageJ software. Each experiment was performed in triplicate. Statistical analysis of the results was performed by analysis of variance ANOVA (Bonferroni post-hoc test).

CAL27 cells = assay: In vitro invasion test (Boyden chamber), CAL 27; conditions: NGF 16 nM or proNGF N.C. 0.5 nM, untreated cells = 100%
Description: as §1, §10

[1] = siRNA transfection vs siCTRL, proNGF
[2] = NGF 30 min, 10 nM K252a or siEphA2
[3] = NGF 16 nM or proNGF N.C. 0.5 nM, untreated cells = 100%

Substance | invasion induced by proNGF in siRNA-transfected cells (PC3 cells; [1]) | effect on Akt phosphorylation induced by NGF (Akt; [2]) | invasion induced by proNGF in siRNA-transfected cells (DU145 cells; [1]) | effect on Src phosphorylation induced by NGF (Src; [2]) | effect on Src activation induced by proNGF (Src; proNGF N.C. 30 min, 10 nM K252a, 15 μM LY294002, 50 nM SKI-1 or siEphA2) | cell invasion under growth factor (CAL33 cells) | cell invasion under growth factor (PC3 cells; [3]) | activation (phosphorylation) of Akt by the ligand (Akt; MDA-MB-231 HA-TrkA, 30 min) | cell invasion under growth factor (CAL27 cells) | cell invasion under growth factor (DU145 cells; [3]) | activation (phosphorylation) of Src by the ligand (Src; MDA-MB-231 HA-TrkA, 30 min)
siEphA2: siRNA against EphA2, GCAAGGAAGUGGUACUGCUGGACUU (SEQ ID NO: 1) (listed as RNA, chemistry not given here) | abolished the invasion induced by proNGF | reduces only the base activation of phospho-Akt and phospho-Src but not the phosphorylation induced by the NGF | abolished the invasion induced by proNGF | reduces only the base activation of phospho-Akt and phospho-Src but not the phosphorylation induced by the NGF | reduced the phosphorylation of Src | – | – | – | – | – | –
NGF: Nerve Growth Factor; recombinant human β NGF supplied by Scil Proteins | – | – | – | – | – | increased cell invasion | increased cell invasion | increased | did not respond | increased cell invasion | increased
